Test system: panel of 456 kinases
Test: Screen of apilimod against a comprehensive panel of 456 kinases (PIKfyve not included)
Assay type: binding
Conditions: screening concentration 1 μM
Excerpt: Next, apilimod was screened against a comprehensive panel of kinases (PIKfyve not included).

Cc1cccc(/C=N/Nc2cc(N3CCOCC3)nc(OCCc3ccccn3)n2)c1 [apilimod]
binding to kinases of the panel: did not bind to any of the 456 kinases tested

Source: patent publication US20180015098A1 (LAM Therapeutics, Inc., priority 2015, published 2018)
